What is called EC50 is the concentration needed to bring the measured effect to its halfway point.

Experimental findings from patent publication US9138434B2, “Octahydrothienoquinoline derivative, pharmaceutical composition comprising derivative, and use of these” (KISSEI PHARMACEUTICAL CO., LTD., priority 2011, dated 2015) are described below.

The target of test [1] is T1, human dopamine D2 receptor (Homo sapiens, UniProt P14416).
T1 construct: accorded to it of human dopamine D2 receptor (NM1-000795) registered on NCBI completely; expressed in transfected cells; membrane homogenates
The experiment in a line: Stimulating activities on human dopamine D2 receptor, [35S]GTPγS binding to hD2R#7 cell membrane homogenates. The format is biochemical. How it is done:
Identification Test of Stimulating Activities on Human Dopamine D2 Receptor
4) Preparation of Membrane Homogenates from hD2R#7 Cells
(2) Preparation of Membrane Homogenates from hD2R#7 Cells
The cells, which were grown to confluence in 150 mm dishes (IWAKI), were harvested with isotonic buffer (50 mM Tris (Sigma), 2 mM ethylenediamine-tetraacetic acid (Invitrogen), and 125 mM sodium chloride (Wako Pure Chemicals), pH 7.4) and centrifuged at 1880×g and 4° C. for 10 minutes, and the cell pellets were then suspended in isotonic buffer. After being subjected to one cycle of freezing and thawing, the cells were centrifuged at 1880×g and 4° C. for 10 minutes, and the cell pellets were suspended in isotonic buffer. The cells were centrifuged at 1880×g and 4° C. for 10 minutes, and the cell pellets were suspended in isotonic buffer and homogenate buffer (10 mM sodium bicarbonate (Nacalai) and 5 mM ethylenediamine-tetraacetic acid, pH 7.5). The volume ratio of isotonic-to-homogenate buffer was 2. The cells were sonicated and centrifuged at 1880×g and 4° C. for 10 minutes, and the supernatants were ultracentrifuged at 80000×g and 4° C. for 30 minutes. The final cell pellets were suspended in homogenate buffer containing protease inhibitor cocktail (Nacalai) and stored at −80° C. until use. The protein concentration was determined using BCA Protein Assay Kit (Pierce) in accordance with the manufacturer's instructions.
5) Determination of Stimulating Activities of Human Dopamine D2 Receptor
The stimulating activities of human dopamine D2 receptor was determined by measuring the binding potential of [^35S]-guanosine 5′-[gamma-thio]triphosphate ([^35S]GTPγS, PerkinElmer) according to the method described by Newman-Tancredi A. et al. (Naunyn-Schmiedeberg's Arch Pharmacol, 1999, vol. 359, pp. 447-453) with a minor modification. Test compounds and dopamine hydrochloride (Fluka) as positive control were dissolved in dimethyl sulfoxide (CARLBIOCHEM), resulting in 30 mM. The both compounds were diluted with assay buffer (50 mM Tris, 100 mM sodium chloride, 5 mM magnesium chloride (Nacalai), 1 mM ethylenediamine-tetraacetic acid, 1 mM dithiothreitol (Wako Pure Chemicals), 10 μM guanosine diphosphate (Wako Pure Chemicals) and 0.5% bovine serum albumin (Sigma), pH 7.4) to a final concentration of 100 pM (only test compounds), 1 nM, 10 nM, 100 nM, 1 μM, 10 μM and 100 μM (only dopamine hydrochloride). The above membrane homogenates and [^35S]GTPγS were diluted with assay buffer to a final concentration of 0.06 mg/mL and 0.6 nM, respectively. The serial diluted compounds (50 μL), the diluted membrane homogenates (50 μL) and the diluted [^35S]GTPγS (50 μL) were mixed on multi-screen 96-well plate (Millipore) and shaken lightly at room temperature for 60 minutes. The reaction was terminated by vacuum filtration with three times washes of ice-cold wash buffer (50 mM Tris, 100 mM sodium chloride, 5 mM magnesium chloride, and 1 mM ethylenediamine-tetraacetic acid, pH 7.4). After drying the bottoms of the plate at 60° C., MicroScinti-40 (PerkinElmer) (30 μL) was added in the plate. The tops of the plate were sealed by TopSeal-A (PerkinElmer), and the radioactivity was determined in a TopCount NXT (registered mark) (PerkinElmer) after shaking lightly for 5-10 minutes. The data was analyzed by nonlinear regression and sigmoidal dose-response curve fitting using GraphPad PRISM 4.0 (GraphPad Software), and values of EC50 (concentration of the compound producing half the maximal effect of the compound) were calculated. The data was presented as mean value (n=2).
For orientation: GTPγS is a poorly hydrolysed GTP analogue; its binding reports G protein activation.

Test [2] has as its target T2, human serotonin 5-HT2B receptor (Homo sapiens, UniProt P41595).
T2 construct: expressed in transfected cells; host or cells: HEK293, transient transfection (Lipofectamine 2000)
The experiment in a line: Stimulating activities on human serotonin 5-HT2B receptor, intracellular calcium in forced expression HEK293 cells. The class given is cell-based. The protocol:
Identification Test of Stimulating Activities on Human Serotonin 5-HT2B Receptor
The PCR was performed using forward primer depicted as sequence ID No. 4, reverse primer depicted as sequence ID No. 5 and KOD-Plus-Ver.2 (TOYOBO) as template of human brain hippocampus cDNA (Clontech). The PCR product was inserted into a plasmid (pcDNA3.1/V5-His-Topo (registered mark)). The PCR product-inserted plasmid was transformed in E. coli (One Shot TOP10 Chemically Competent). That E. coli was incubated in LB agar medium contained 50 μg/mL ampicillin for a day. A selected colony was incubated in LB medium contained 50 μg/mL ampicillin and PCR product-inserted plasmid was purified with QIAprep Spin Miniprep Kit (QIAGEN).
Mostly confluent HEK293 cells were washed with PBS, followed by exfoliation with 0.05% trypsin-EDTA and the cells were suspended in D-MEM liquid medium (phenol red-free, low glucose, pyruvic acid were contained) containing fetal bovine serum (final concentration: 10%) and GlutaMax (registered mark)I (final concentration: 2 mM). The suspension was scattered at 5×10^4 cells/100 L/well on poly-D-lysine-coated 96-well microplate (BD BioCoat (registered mark)). The scattered cells were cultured in 5% CO2 incubator at 37° C. Human serotonin 5-HT2B receptor expression plasmid was transfected in that cells according to the procedure seeing below.
Human serotonin 5-HT2B receptor expression plasmid and Lipofectamine (registered mark) 2000 (Invitrogen) were diluted to 0.008 g/L and 0.016 g/L each other with OPTI-MEM (registered mark)I Reduced-Serum Medium and incubated at room temperature. After incubation, the human serotonin 5-HT2B receptor exoression plasmid-diluted liquid and Lipofectamine (registered mark) 2000-diluted liquid were mixed at an equal volume and incubated at room temperature to form a complex. The complex was dispensed at 50 μL/well on the cells prepared above. The cells were incubated in 5% CO2 incubator at 37° C. for 2 days. After incubation, the cells were used as human serotonin 5-HT2B receptor forced expression cells for measurement of intracellular calcium concentration.
3) Determination of Stimulating Activities of Human Serotonin 5-HT2B Receptor
The stimulating activities of human serotonin 5-HT2B receptor was determined by measuring of intracellular calcium concentration. The 30 mM dimethyl sulfoxide (DMSO) solution contained test compounds or serotonin hydrochloride (Sigma) as positive control, was diluted with assay buffer ((HBSS), 20 mM HEPES, 1.3 mM calcium chloride, 0.5 mM magnesium chloride and 0.4 mM magnesium sulfate were contained, pH7.4) to appropriate concentration.
The forced expression cells were washed with assay buffer, and 100 μL/well of fluorescent calcium indicator (Fluo-4 NW Calcium Assay Kit) was added and incubated in 5% CO2 incubator at 37° C. After incubation, 50 μL/well of each test compound was added, and the concentration of intracellular calcium was measured as fluorescent signal with FlexStation (registered mark) II (Molecular Devices). The data was analyzed by nonlinear regression and sigmoidal dose-response curve fitting using GraphPad PRISM 4.0, and values of EC50 (concentration of the compound producing half the maximal effect of the compound) were calculated. The data was presented as mean value (n=2).
In general terms: A change in cytosolic calcium serves as a functional read-out for many receptors and channels.

Setting [3] is: [35S]GTPγS binding, membrane homogenates of HEK293 cells stably expressing human D2 receptor, mean, n=2, read-out: EC50.
The mark [4] stands for this setting: intracellular calcium (Fluo-4), HEK293 cells transiently expressing human 5-HT2B receptor, mean, n=2, read-out: EC50.

Like-named read-outs stand apart in the source and are kept apart here.

T1 sequence (P14416 whole entry): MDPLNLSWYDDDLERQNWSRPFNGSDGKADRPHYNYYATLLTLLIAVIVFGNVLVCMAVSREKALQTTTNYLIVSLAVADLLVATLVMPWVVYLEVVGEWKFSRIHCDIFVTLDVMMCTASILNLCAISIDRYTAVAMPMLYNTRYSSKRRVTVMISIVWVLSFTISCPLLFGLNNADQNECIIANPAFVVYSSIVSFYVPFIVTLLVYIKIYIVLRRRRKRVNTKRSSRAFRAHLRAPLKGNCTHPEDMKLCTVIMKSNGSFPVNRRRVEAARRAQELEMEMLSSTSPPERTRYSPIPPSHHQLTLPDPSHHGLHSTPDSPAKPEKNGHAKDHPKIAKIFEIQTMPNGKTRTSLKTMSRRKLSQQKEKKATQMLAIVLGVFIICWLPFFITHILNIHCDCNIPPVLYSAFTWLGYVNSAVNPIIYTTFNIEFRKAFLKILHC
T2 sequence (P41595 whole entry): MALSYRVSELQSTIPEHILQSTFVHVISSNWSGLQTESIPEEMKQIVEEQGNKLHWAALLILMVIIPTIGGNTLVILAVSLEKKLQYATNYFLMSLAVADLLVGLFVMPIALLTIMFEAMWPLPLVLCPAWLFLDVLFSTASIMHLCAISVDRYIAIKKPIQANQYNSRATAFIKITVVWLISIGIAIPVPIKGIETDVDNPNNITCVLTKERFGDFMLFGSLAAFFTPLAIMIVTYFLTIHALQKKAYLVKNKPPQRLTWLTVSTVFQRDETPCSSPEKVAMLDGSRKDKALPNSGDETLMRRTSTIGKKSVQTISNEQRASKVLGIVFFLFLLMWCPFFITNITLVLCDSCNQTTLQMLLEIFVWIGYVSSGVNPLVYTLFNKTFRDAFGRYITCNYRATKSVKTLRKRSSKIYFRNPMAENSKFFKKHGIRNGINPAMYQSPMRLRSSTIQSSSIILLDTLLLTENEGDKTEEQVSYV

With `CCNC(=O)N(CCN1CCCC1)C(=O)[C@@H]1C[C@@H]2Cc3c(sc(N)c3C#N)C[C@H]2N(C)C1` [1-6, 1-{[(4aR,6R,8aR)-2-amino-3-cyano-8-methyl-4H,4aH,5H,6H,7H,8H,8aH,9H-thieno[3,2-g]quinolin-6-yl]carbonyl}-3-ethyl-1-[2-(pyrrolidin-1-yl)ethyl]urea], the EC50 in test [1] (setting [3]) was 11 nM; in test [2] (setting [4]) it was over 10000 nM.
With `CCCN1C[C@H](CSC)C[C@@H]2c3cccc4[nH]cc(c34)C[C@H]21` [Pergolide, pergolide, reference compound], the EC50 in test [2] (setting [4]) was 287 nM.
Regarding `CCCN1C[C@H](C(=O)N(CCCN(C)C)C(=O)NCC)C[C@@H]2Cc3c(sc(N)c3C#N)C[C@H]21` [1-13], the EC50 in test [1] (setting [3]) was determined as 7 nM.
As to `CCCN(C(=O)NCC(C)(C)CN(C)C)C(=O)[C@@H]1C[C@@H]2Cc3c(sc(N)c3C#N)C[C@H]2N(C)C1` [1-83], the EC50 was 6 nM in test [1] (setting [3]) and over 10000 nM in test [2] (setting [4]).
For the molecule `CN(C)CCNC(=O)N(CC1CC1)C(=O)[C@@H]1C[C@@H]2Cc3c(sc(N)c3C#N)C[C@H]2N(C)C1` (single isomer, unassigned) [1-36], the EC50 in test [1] (setting [3]) was 10 nM.
As for `CCN(CC)CCNC(=O)N(CC)C(=O)[C@@H]1C[C@@H]2Cc3c(sc(N)c3C#N)C[C@H]2N(C)C1` [1-105, 1-{[(4aR,6R,8aR)-2-amino-3-cyano-8-methyl-4H,4aH,5H,6H,7H,8H,8aH,9H-thieno[3,2-g]quinolin-6-yl]carbonyl}-3-[2-(diethylamino)ethyl]-1-ethylurea], the EC50 in test [1] was 5 nM; in test [2], over 10000 nM.
With `CN(C)CCNC(=O)N(CC1CC1)C(=O)[C@@H]1C[C@@H]2Cc3c(sc(N)c3C#N)C[C@H]2N(C)C1` [1-109, 1-{[(4aR,6R,8aR)-2-amino-3-cyano-8-methyl-4H,4aH,5H,6H,7H,8H,8aH,9H-thieno[3,2-g]quinolin-6-yl]carbonyl}-1-(cyclopropylmethyl)-3-[2-(dimethylamino)ethyl]urea], the EC50 is 3 nM in test [1] (setting [3]) and over 10000 nM in test [2] (setting [4]).
In the same order, the values of `CCCN(C(=O)NCCNC)C(=O)[C@@H]1C[C@@H]2Cc3c(sc(N)c3C#N)C[C@H]2N(C)C1` [1-2] are 12 nM and over 10000 nM.
`CN(C)CC(C)(C)CNC(=O)N(CC1CC1)C(=O)[C@@H]1C[C@@H]2Cc3c(sc(N)c3C#N)C[C@H]2N(C)C1` [1-104, 1-{[(4aR,6R,8aR)-2-amino-3-cyano-8-methyl-4H,4aH,5H,6H,7H,8H,8aH,9H-thieno[3,2-g]quinolin-6-yl]carbonyl}-1-(cyclopropylmethyl)-3-[3-(dimethylamino)-2,2-dimethyl-propyl]urea]: the EC50 is 4 nM in test [1] (setting [3]) and over 10000 nM in test [2] (setting [4]).
`CCN(C(=O)NCc1ccccn1)C(=O)[C@@H]1C[C@@H]2Cc3c(sc(N)c3C#N)C[C@H]2N(C)C1` [1-25] had a concentration giving a half-maximal response (EC50) in test [1] of 15 nM.
Regarding `C=CCN(C(=O)NCCN(C)C)C(=O)[C@@H]1C[C@@H]2Cc3c(sc(N)c3C#N)C[C@H]2N(C)C1` [1-39], in test [1] (setting [3]), the EC50 is 17 nM.
On the same count and under the same terms, with `CCN(C(=O)NCCCOC)C(=O)[C@@H]1C[C@@H]2Cc3c(sc(N)c3C#N)C[C@H]2N(C)C1` [1-21] the figure was 21 nM.
As to `CCN(C(=O)NCC(CC)(CC)N(C)C)C(=O)[C@@H]1C[C@@H]2Cc3c(sc(N)c3C#N)C[C@H]2N(C)C1` (relative stereo) [1-84, 1-{[(4aR*,6R*,8aR*)-2-amino-3-cyano-8-methyl-4H,4aH,5H,6H,7H,8H,8aH,9H-thieno[3,2-g]quinolin-6-yl]carbonyl}-3-[2-(dimethylamino)-2-ethylbutyl]-1-ethylurea], in test [2] (setting [4]), the EC50 is over 10000 nM.
As for `CN(C)CCNC(=O)N(CC(C)(C)C)C(=O)[C@@H]1C[C@@H]2Cc3c(sc(N)c3C#N)C[C@H]2N(C)C1` (relative stereo) [1-56, 1-{[(4aR*,6R*,8aR*)-2-amino-3-cyano-8-methyl-4H,4aH,5H,6H,7H,8H,8aH,9H-thieno[3,2-g]quinolin-6-yl]carbonyl}-3-[2-(dimethylamino)ethyl]-1-(2,2-di-methylpropyl)urea], the EC50 in test [1] (setting [3]) was found to be 9 nM.
The same measure, in the same setting: with `CN(C)CCNC(=O)N(CCCC(F)(F)F)C(=O)[C@@H]1C[C@@H]2Cc3c(sc(N)c3C#N)C[C@H]2N(C)C1` [1-61] the figure was 11 nM; with `COCCN(C(=O)NCCN1CCCCC1)C(=O)[C@@H]1C[C@@H]2Cc3c(sc(N)c3C#N)C[C@H]2N(C)C1` [1-68], 12 nM; with `CN(C)CCNC(=O)N(Cc1cccs1)C(=O)[C@@H]1C[C@@H]2Cc3c(sc(N)c3C#N)C[C@H]2N(C)C1` [1-37], 6 nM.
On the same count and under the same terms, with `CCCCN(C(=O)NCCN(CC)CC)C(=O)[C@H]1CN[C@@H]2Cc3sc(N)c(C#N)c3C[C@H]2C1` [1-88] the figure was 24 nM; with `CCCCN(C(=O)NCCN1CCN(C)CC1)C(=O)[C@@H]1C[C@@H]2Cc3c(sc(N)c3C#N)C[C@H]2N(C)C1` [1-66], 14 nM.
Consider `CCN(C(=O)NCCN(C)c1ccccc1)C(=O)[C@@H]1C[C@@H]2Cc3c(sc(N)c3C#N)C[C@H]2N(C)C1` [1-86], for which the EC50 in test [1] (setting [3]) turned out to be 13 nM.
Same read-out and setting: with `CCN(C(=O)NCCc1ccccc1CCN(C)C)C(=O)[C@@H]1C[C@@H]2Cc3c(sc(N)c3C#N)C[C@H]2N(C)C1` [1-44] the figure was 13 nM.
The same measure, in the same setting: with `CCCCN(C(=O)NCCN(C)CCO)C(=O)[C@@H]1C[C@@H]2Cc3c(sc(N)c3C#N)C[C@H]2N(C)C1` [1-87] the figure was 22 nM.
